Legend:
CT26.WT-hHER2 cells [1] = test: Analysis of in vitro cancer cells treated with different compounds, MHC class I (Evaluation Example 17); type: cell-based, mouse; details: 20 nM, 100 nM, 500 nM; vs control group, Dunnett's test; agents: compound (A), DM1-SMe, DM4-SMe, MMAE
Description: (§1) To culture solution for CT26.WT-hHER2 cells, the compound (A) was added to a concentration of 0.0625 μM, 0.125 μM, 0.25 μM, 0.5 μM, or 1 μM. For a control, DMSO in a quantity equal to that of the compound (A) was added. After 24 hours, staining was performed by using PE labeled anti-human Her2/neu (340552, Becton Dickinson) and FITC labeled anti-mouse H-2Dd (110606, BioLegend), and expression levels of MHC class I on cancer cells were determined with flow cytometry. Dead cells had been stained with a LIVE/DEAD Fixable Near-IR Dead Cell Stain Kit purchased from Thermo Fisher Scientific, and excluded from the analysis. The mean fluorescence intensity (MFI) of MHC class I was calculated, and MFI for cells treated with an Isotype control was subtracted from the MFI for stained cells, and the resulting value was used as adjusted MFI. Comparison between the control group and the compound (A) group was performed by using Dunnett's test, P values were expressed as numerical values to the fourth decimal place, and values of P<0.05 (two-tailed test) were regarded as significant differences.
Expression levels of MHC class I were determined for cancer cells treated with different compounds. […]

[2] = tested on: bone marrow-derived dendritic cells; test: Effect on in vitro dendritic cells, flow cytometry (Evaluation Example 5); type: cell-based, mouse; details: 0.0625-1 μM, 24 hours, compared with DMSO
Description: BALB/c mice were euthanized, and bone marrow cells were then separated from each femur, and cultured with an RPMI 1640 medium containing 10% FBS, 55 μM 2-mercaptoethanol, 100 U/mL penicillin, […], 1 mM sodium pyruvate, 1×non-essential amino acid, 2 mM L-glutamine, and 10 ng/mL mouse GM-CSF for 11 days to induce bone marrow-derived dendritic cells. To the culture solution for the induced dendritic cells, the compound (A) was added to a concentration of 0.0625 μM, 0.125 μM, 0.25 μM, 0.5 μM, or 1 μM. For a control, DMSO in a quantity equal to that of the compound (A) was added. After 24 hours, staining was performed by using a Pacific Blue labeled anti-mouse CD45 Antibody (103126, BioLegend), PE labeled anti-mouse CD86 (B7-2) (553692, Becton Dickinson), APC labeled anti-mouse CD11c (550261, Becton Dickinson), and FITC labeled anti-mouse MHC Class II (I-A/I-E) (11-5321-85, Thermo Fisher Scientific), and analysis was performed by using an FACS Canto II. Dead cells had been stained with a LIVE/DEAD Fixable Near-IR Dead Cell Stain Kit purchased from Thermo Fisher Scientific, and excluded from the analysis.

CT26.WT-hHER2 cells [3] = test: Analysis of in vitro cancer cells, MHC class I by flow cytometry (Evaluation Example 8); type: cell-based, mouse; details: 0.0625-1 μM, 24 hours, vs DMSO, Dunnett's test
Description: as §1

topoisomerase I = target: T1, topoisomerase I (Homo sapiens, UniProt P11387); details: Ogitani Y. et al., Clinical Cancer Research 2016; cited from earlier work
T1 sequence (P11387 1-765): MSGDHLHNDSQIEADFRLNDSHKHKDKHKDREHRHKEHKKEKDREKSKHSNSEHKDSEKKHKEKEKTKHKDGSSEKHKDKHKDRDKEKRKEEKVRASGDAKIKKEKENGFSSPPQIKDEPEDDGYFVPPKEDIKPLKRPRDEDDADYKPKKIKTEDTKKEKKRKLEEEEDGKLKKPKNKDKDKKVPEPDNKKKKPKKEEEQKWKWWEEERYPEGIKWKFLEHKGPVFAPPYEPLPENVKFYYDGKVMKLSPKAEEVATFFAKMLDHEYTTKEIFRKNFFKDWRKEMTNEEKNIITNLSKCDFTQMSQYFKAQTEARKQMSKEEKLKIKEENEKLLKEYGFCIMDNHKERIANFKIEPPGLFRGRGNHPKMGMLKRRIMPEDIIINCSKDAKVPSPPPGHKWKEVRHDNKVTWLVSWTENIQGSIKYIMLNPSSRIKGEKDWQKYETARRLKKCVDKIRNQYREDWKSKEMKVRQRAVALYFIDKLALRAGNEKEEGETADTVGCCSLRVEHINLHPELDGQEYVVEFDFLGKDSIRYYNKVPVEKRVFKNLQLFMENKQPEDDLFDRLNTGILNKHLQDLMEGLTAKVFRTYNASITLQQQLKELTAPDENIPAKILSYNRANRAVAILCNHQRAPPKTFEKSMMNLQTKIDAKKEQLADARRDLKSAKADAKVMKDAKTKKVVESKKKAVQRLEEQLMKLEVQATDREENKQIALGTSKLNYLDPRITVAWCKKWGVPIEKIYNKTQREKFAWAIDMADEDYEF

CC[C@@]1(O)C(=O)OCc2c1cc1n(c2=O)Cc2c-1nc1cc(F)c(C)c3c1c2[C@@H](NC(=O)CO)CC3 [compound (A)]
expression level of MHC class I on CT26.WT-hHER2 cells (CT26.WT-hHER2 cells [1]): maximum elevation effect | expression level of CD86 on CD11c-positive cells [2]: elevated | expression level of MHC class II on CD11c-positive cells [2]: elevated | expression level of MHC class I on CT26.WT-hHER2 cells (adjusted MFI) (CT26.WT-hHER2 cells [3]): significantly elevated | topoisomerase I inhibitory effect (topoisomerase I): confirmed to have a topoisomerase I inhibitory effect

Source: patent US12319736B2, “Combination of antibody-drug conjugate and immune checkpoint inhibitor” (DAIICHI SANKYO COMPANY, LIMITED, priority 2016, dated 2025)
